Patent publication US5608095A, “Alkyl-4-silyl-phenols and esters thereof as antiatherosclerotic agents” (Hoechst Marion Roussel, Inc., priority 1996, dated 1997)
Like-named read-outs stand apart in the source and are kept apart here.

What was measured:
[1] = test system: serum cholesterol, LDL, HDL, triglycerides; assay: Serum lipids and lipoprotein cholesterol in cholesterol-fed female New Zealand White rabbits; format: in vivo; conditions: Oryctolagus cuniculus, po, 168 h, rabbit serum, diet 0.4%, 7 days
How it was run: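 Female New Zealand White rabbits fed 0.2% cholesterol chow sprayed with 0.4% compound (some at 0.26% or 0.6%) for 7 days (0.6% arm, 14 days). Fasted serum: total cholesterol and triglycerides enzymatically (mg/dL); VLDL/LDL/HDL separated by Sepharose 6HR gel-filtration HPLC, post-column cholesterol reagent at 37 °C, A500.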

[2] = test system: oxidation of serum lipids; assay: TBARS assay, serum of cholesterol-fed rabbits; format: in vivo, female New Zealand White rabbits; conditions: Oryctolagus cuniculus, po, 168 h; rabbit serum, diet 0.4%, 7 days; read-out: TBARS, percent of control
How it was run: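 Female NZW rabbits ate 0.2% cholesterol chow with 0.4% dietary compound (some 0.26% or 0.6%) for 7 days (14 days at 0.6%); fasted serum was collected. Serum was oxidised with 5 mM CuSO4 solution, 37 °C 5 h, then reacted with thiobarbituric acid at 90 °C for 30 min. MDA nmol came from an A540 standard curve, versus untreated-rabbit serum.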

[3] = Clinical chemistries in serum of rats; format: in vivo, male Sprague-Dawley rats; conditions: rat serum, diet 0.3%, 4 days; for response vs control in vivo at 0.3 %: po, 96 h
How it was run: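 Male Sprague-Dawley rats (50-100 g, N=5/group) fed compound as 0.3% or 0.1% dietary admixture for 4 days vs untreated-chow controls. Non-fasted rats bled by cardiac puncture on day 5; fresh serum analysed on autoanalyzer for ALP, ALT, AST (units/L) and cholesterol, triglycerides, glucose (mg/dL).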

[4] = read-out: TRIG (triglycerides), percent of control

COc1ccc([Si](C)(C)COc2ccc(O)c(C(C)(C)C)c2)cc1 [MDL 106,834, 2-t-Butyl-4-[(dimethyl-p-methoxylphenylsilyl)methyloxy]phenol]
response vs control in vivo at 0.4 % ([1]; read-out: HDL cholesterol, percent of control): 61%
response vs control in vivo at 0.4 % ([1]; read-out: LDL cholesterol, percent of control): 89%
response vs control in vivo at 0.4 % [1, 4]: 98%
response vs control in vivo at 0.4 % ([1]; read-out: chol tot. (total cholesterol), percent of control): 67%
response vs control in vivo at 0.4 % [2]: 70%
response vs control in vivo at 0.3 % ([3]; read-out: CHOL (total cholesterol), percent of control): 150%
response vs control in vivo at 0.3 % [3, 4]: 83%
ALP (alkaline phosphatase), percent of control [3]: 69%
ALT (alanine aminotransferase), percent of control [3]: 141%
AST (aspartate aminotransferase), percent of control [3]: 122%
GLUC (glucose), percent of control [3]: 95%
